In paper PMC1618416, “The Liganding of Glycolipid Transfer Protein Is Controlled by Glycolipid Acyl Structure” (PLoS Biology, 2006):

Key:
Type in all cases: binding
[1] = target: T1, glycolipid transfer protein (GLTP) (Homo sapiens, UniProt Q9NZD2); assay: X-ray crystal structure ([…] Å); tryptophan fluorescence Kd; set-up: recombinant human GLTP, His6- and S-tags removed by Factor Xa
T1 sequence (Q9NZD2 2-209): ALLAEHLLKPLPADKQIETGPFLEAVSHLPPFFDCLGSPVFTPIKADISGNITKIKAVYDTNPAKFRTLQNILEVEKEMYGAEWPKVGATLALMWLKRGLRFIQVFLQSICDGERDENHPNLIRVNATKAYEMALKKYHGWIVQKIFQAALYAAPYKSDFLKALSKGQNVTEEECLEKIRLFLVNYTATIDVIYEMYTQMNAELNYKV

[2] = target: T1, glycolipid transfer protein (GLTP); assay: X-ray crystal structure; set-up: recombinant human GLTP, His6- and S-tags removed by Factor Xa
[3] = target: T1, glycolipid transfer protein (GLTP); assay: tryptophan fluorescence Kd (crystal structure 1SX6 from earlier paper); set-up: recombinant human GLTP
[4] = target: T1, glycolipid transfer protein (GLTP); assay: X-ray crystal structure; tryptophan fluorescence Kd; set-up: recombinant human GLTP, His6- and S-tags removed by Factor Xa

Work on CCCCCCCC/C=C\CCCCCCCCCCCCCC(=O)N[C@@H](CO[C@@H]1O[C@H](CO)[C@H](O)[C@H](O)[C@H]1O)[C@H](O)/C=C/CCCCCCCCCCCCC [24:1 GalCer, N-cis-15-tetracosenoyl galactosyl-sphingosine] yielded a Kd [1] of 250 nM.

In the case of CCCCCCO[C@@H]1O[C@H](CO)[C@@H](O)[C@H](O)[C@H]1O [n-hexyl-β-D-glucoside], the X-ray crystal structure [2] is reported as “The sugar headgroup of n-hexyl-β-D-glucoside binds the GLTP recognition center in a manner similar to all GSL-GLTP complexes”.

For CCCCCCCC/C=C\CCCCCCCC(=O)N[C@@H](CO[C@@H]1O[C@H](CO)[C@@H](O[C@@H]2O[C@H](CO)[C@H](O)[C@H](O)[C@H]2O)[C@H](O)[C@H]1O)[C@H](O)/C=C/CCCCCCCCCCCCC [18:1 LacCer, N-cis-9-octadecenoyl lactosylsphingosine], the Kd [3] was 270 nM.

Compound CCCCC/C=C\C/C=C\CCCCCCCC(=O)N[C@@H](CO[C@@H]1O[C@H](CO)[C@H](O)[C@H](O)[C@H]1O)[C@H](O)/C=C/CCCCCCCCCCCCC [18:2 GalCer, N-cis-N-cis-9,12-octadecenoyl galactosyl-sphingosine] has a Kd [4] of 200 nM.

CCCCCCCCCCCCC/C=C/[C@@H](O)[C@H](CO[C@@H]1O[C@H](CO)[C@@H](O[C@@H]2O[C@H](CO)[C@H](O)[C@H](O)[C@H]2O)[C@H](O)[C@H]1O)NC(=O)CCCCCCC [8:0 LacCer, N-octanoyl lactosylsphingosine] was tested, and the Kd [4] was 200 nM.
